Experiments:
3T3-L1 cells [1] = assay: MTT test, 3T3-L1; type: cell-based, murine; conditions: 10 μmol·L−1, 24 h
Protocol: (§1) An MTT test provides an indication of cell viability, proliferation and activity through determination of the mitochondrial conversion of 3-(4,5-dimethylthiazol-2-yl)-2,5-diphenyltetrazolium bromide (MTT), a yellow salt, into formazan, a salt that precipitates under the form of blue crystals.
(§2) In concreto, 5,000 cells are seeded in a cup of a 96 well-plate, treated with the desired amount of the test substance, and incubated for a chosen period of time. Next, 40 μL of a filtered (0.2 μm) 5 mg·mL^−1 solution of MTT in PBS is added to the cup. After 2 h of incubation at 37° C. in the dark, all liquid is removed. The obtained formazan salts are dissolved in 200 μL of DMSO, whereupon optical density is measured at 490 nm.
(§3) In order to verify whether the antiproliferative effects of compound 49, witnessed in BLM and MCF-7/6 cells at high concentrations, were cell specific, additional SRB and MTT assays on a further five cell lines (HCT8-E11, TR146, FaDu, 3T3-L1 and CT5.3) were conducted (FIG. 8). The results for MCF-7/6 cells were added to facilitate comparison.
(§4) The CT5.3 cell line consists of human myofibroblasts which were isolated from a colon tumor (Van Hoorde et al., 1999). 3T3-L1 cells are murine fibroblasts, originating from embryo's of Swiss mice (Todaro and Green, 1963). HCT8-E11, FaDu and TR146 are human epithelial cancer cell lines. […]

BLM melanoma cells = assay: SRB test, BLM; type: cell-based
Protocol: (§5) The SRB assay is used to evaluate growth effects on cells, and measures the total protein content. In this test, 5,000 cells are seeded in a cup of a 96-well plate. Upon a 24 h-attachment period, cells are treated with a certain amount of the test molecule (dissolved in DMSO). After a pre-chosen incubation time, cells are fixed with 50 μL of 50% trichloroacetic acid (2° C., 1 h). Afterward, the plate is rinsed five times with tap water, and air dried overnight.
(§6) Next, proteins are stained with 75 μL of a 0.4% solution of SRB in AcOH (30 min). Unbound SRB is subsequently removed by washing with a 1% solution of glacial AcOH, whereupon the plate is air dried. Then, bound SRB is redissolved in 100 μL of a 10 mmol·L^−1 tris(hydroxymethyl)aminomethane (Tris) buffer (pH=10.5), after which optical density is determined at 490 nm with a spectrophotometer.
As 4-fluoro-3′,4′,5′-trimethoxychalcone had exerted an anti-invasive activity on BLM melanoma cells in the Matrigel invasion assay, we were intrigued to verify how its effect on the viability of BLM cells would compare to that observed for the MCF-7 cell lines.

CT5.3 myofibroblasts [2] = assay: SRB test, CT5.3; type: cell-based, human; conditions: 10 μmol·L−1, 24 h, decreasing trend, not significant
Protocol: as §5, §6, §3
(§7) The CT5.3 cell line consists of human myofibroblasts which were isolated from a colon tumor (Van Hoorde et al., 1999). […]

FaDu cells = assay: SRB test, FaDu; type: cell-based, human; conditions: 1 or 10 μmol·L−1, 24 h
Protocol: as §5, §6, §3, §7

3T3-L1 cells [3] = assay: SRB test, 3T3-L1; type: cell-based, murine; conditions: 10 μmol·L−1, 24 h, decreasing trend, not significant
Protocol: as §5, §6, §3, §7

CT5.3 myofibroblasts [4] = assay: MTT test, CT5.3; type: cell-based, human; conditions: 10 μmol·L−1, 24 h
Protocol: as §1, §2, §3, §4

[5] = tested on: HCT8-E11 colon carcinoma cells; assay: SRB test, HCT8-E11; type: cell-based, human
Protocol: as §5, §6, §3, §7

[6] = tested on: MCF-7/6 mammary carcinoma cells; assay: chick heart invasion assay; type: cell-based, human; design: unit not given here
From the text: “Anti-invasive” or “anti-invasive activity” is the ability to inhibit the invasiveness of tumor cells. Invasion by tumor cells is defined as the progressive occupation and destruction of their environment, and is the result of matrix degradation and directional cell motility. Anti-invasive activity of a compound is the ability to inhibit or block invasion, and can be assessed by counting the number of invading cells, by the depth of their invasion and/or by the amount of environmental destruction. Many assays in vitro can be applied to test for anti-invasive activity (for a complete list see Bracke et al. 2008). The three most popular ones are: • Chick heart invasion assay (Bracke et al., 2001, see details below). The cut-off value is between grade II (non-invasive) and grade III (invasive). […] Collagen gels, prepared on the bottom of plastic wells are covered with a test cell suspension, and incubated with liquid culture medium for 24 h. Invasion is evaluated with an inverted phase-contrast microscope, and is based on the percentage of cells showing extensions in the gel. […] Matrigel is a mixture of basement membrane components, and is applied as a semi-solid layer on top a filter with pores allowing the transgression of cells. The test cell suspension is seeded on top of the gel, and incubated for 1 day in a two-compartment chamber system. Invasion is then evaluated via the percentage of cells that are attached to the lower side of the filter.
In the chick heart invasion assay cancer cells are confronted with a fragment of normal tissue, so as not to neglect the contribution of the host tissue in the micro-ecosystem that governs tumor behavior. As such, precultured heart tissue fragments (PHFs), dissected from 9-day-old chicken embryos, may be confronted with aggregates of human invasive MCF-7/6 mammary carcinoma cells in the presence of a certain concentration of a test compound. After eight days, the interaction between the cancer cells and the PHF is evaluated histologically and classified along a 5-grades subjective scale (Bracke et al., 2001). Grades III and IV are typical for invasion, while grades 0, I and II correspond to absence of invasion. Compounds that inhibit invasion of confronting cancer cells i.e. from III/IV to 0/I/II, are determined as anti-invasive. Possible alternative assays generally known in the art are the type I collagen invasion assay, wound healing assay and the matrigel invasion assay.
“Anti-invasive” refers to the ability to inhibit invasion of the tumor or cancer cell into surrounding tissue (within or outside the organ of origin). […] This screening method confronts cancer cells with a fragment of normal tissue, so as not to neglect the contribution of the host tissue in the micro-ecosystem that governs tumor behavior. The interaction between the cancer cells and the normal tissue is evaluated histologically and classified along a 5-grades subjective scale. Grades III and IV are typical for invasion, while grades 0, I and II correspond to absence of invasion. Compounds that inhibit invasion of confronting cancer cells i.e. from III/IV to 0/I/II, are determined as anti-invasive. Possible alternative assays generally known in the art are the type I collagen invasion assay and the Matrigel invasion assay.
The potency of these molecules had been evaluated by means of the chick heart invasion assay, as described herein before.

With `COc1cc(C(=O)/C=C/c2ccc(F)cc2)cc(OC)c1OC` [Compound 49, (2E)-3-(4-Fluorophenyl)-1-(3,4,5-trimethoxyphenyl)propenone] the “reduction in mitochondrial activity” value (3T3-L1 cells [1]) was 30%, the “reduction in total protein content” value (BLM melanoma cells; 0.1 μmol·L−1, 24 h) was “no effect was apparent” and the “change in total protein content” value (BLM melanoma cells; 10 μmol·L−1, 24 h, significant reduction) was −20%. The “reduction in total protein content” value (BLM melanoma cells; 1 and 10 μmol·L−1, 24 h (p<0.01)) was 20%, the “change in total protein content” value (CT5.3 myofibroblasts [2]) was −15% and the “total protein content versus solvent control” value (FaDu cells) was “no significant differences”. For the same compound, the “change in total protein content” value (3T3-L1 cells [3]) was −20%, the “decrease in mitochondrial activity” value (CT5.3 myofibroblasts [4]) was 22% and the “change in total protein content” value ([5]; 10 μmol·L−1, 24 h, decreasing trend, not significant) was −27%. The “reduction in total protein content” value ([5]; elevated concentrations 10-100 μmol·L−1, summary) was about 50%, the “Actual in vitro activity class” value ([6]; compounds 37-51, Table 11) was −2 (about 0.01) and the Actual class ([6]; training set compounds 37-51, class = log cmin, lowest concentration with invasion grade I or II) was −2 (about 0.01).

— US9290427B2, “Anti-invasive compounds” (Universiteit Gent, priority 2012, dated 2016)
